Reference: patent US11084800B2 (Achillion Pharmaceuticals, Inc., priority 2017, dated 2021)

Each molecule was assayed against Human Factor D (Homo sapiens (Human), UniProt P00746) (assay: Human Factor D Assay). Details: Factor D inhibition, assay of Example 10; read-out: IC5 (Stars).
Format: biochemical
Procedure, shortened: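 Thioester substrate Z-L-Lys-SBz (100 μM) with Ellman's reagent DTNB (100 μM) reports activity of 80 nM human serum-derived enzyme, kinetically at 405 nm over 30 min. Compound preincubated 5 min, room temperature, pH 7.5 Tris/1 M NaCl; IC50 by nonlinear fit of rates.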

Sequence of Human Factor D (P00746 26-253): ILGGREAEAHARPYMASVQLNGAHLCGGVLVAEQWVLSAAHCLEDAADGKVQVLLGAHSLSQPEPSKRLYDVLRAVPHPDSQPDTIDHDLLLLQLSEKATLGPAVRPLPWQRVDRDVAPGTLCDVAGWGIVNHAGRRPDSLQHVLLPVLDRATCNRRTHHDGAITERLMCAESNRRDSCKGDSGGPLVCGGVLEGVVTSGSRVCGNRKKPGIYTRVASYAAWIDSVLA

Row | Compound | IC50
1 | CC(=O)c1nn(CC(=O)N2[C@H](C(=O)Nc3nc(Br)ccc3C)C[C@@]3(CN4CC5(CC5)C4)C[C@@H]23)c2c(CF)cc(-c3cnc(C)nc3)cc12 [Compound 369, (1R,3S,5R)-5-(5-azaspiro[2.3]hexan-5-ylmethyl)-2-(2-(3-acetyl-7-(fluoromethyl)-5-(2-methylpyrimidin-5-yl)-1H-indazol-1-yl)acetyl)-N-(6-bromo-3-methylpyridin-2-yl)-2-azabicyclo[3.1.0]hexane-3-carboxamide] | < 1000 nM
2 | CC(=O)c1nn(CC(=O)N2[C@H](C(=O)Nc3nc(Br)ccc3C)C[C@@]3(CN4CC5(CC5)C4)C[C@@H]23)c2c(C)nc(-c3cnc(C)nc3)cc12 [Compound 370, (1R,3S,5R)-5-(5-azaspiro[2.3]hexan-5-ylmethyl)-2-(2-(3-acetyl-7-methyl-5-(2-methylpyrimidin-5-yl)-1H-pyrazolo[3,4-c]pyridin-1-yl)acetyl)-N-(6-bromo-3-methylpyridin-2-yl)-2-azabicyclo[3.1.0]hexane-3-carboxamide] | < 1000 nM
3 | CC(=O)c1nn(CC(=O)N2[C@H](C(=O)Nc3nc(Br)ccc3C)C[C@@]3(Cc4nc(C)no4)C[C@@H]23)c2c(C)cc(-c3cnc(C)nc3)cc12 [Compound 372, (1R,3S,5R)-2-(2-(3-acetyl-7-methyl-5-(2-methylpyrimidin-5-yl)-1H-indazol-1-yl)acetyl)-N-(6-bromo-3-methylpyridin-2-yl)-5-((3-methyl-1,2,4-oxadiazol-5-yl)methyl)-2-azabicyclo[3.1.0]hexane-3-carboxamide] | < 1000 nM
4 | CC(=O)c1nn(CC(=O)N2[C@H](C(=O)Nc3nc(Br)ccc3C)C[C@@]3(C)C[C@@H]23)c2cc(C)c(-c3cnc(C)nc3)cc12 [Compound 373, (1R,3S,5R)-2-(2-(3-acetyl-6-methyl-5-(2-methylpyrimidin-5-yl)-1H-indazol-1-yl)acetyl)-N-(6-bromo-3-methylpyridin-2-yl)-5-methyl-2-azabicyclo[3.1.0]hexane-3-carboxamide] | < 1000 nM
5 | CC(=O)c1nn(CC(=O)N2[C@H](C(=O)Nc3nc(Br)ccc3C)C[C@@]3(CCN(C)C)C[C@@H]23)c2c(CF)cc(-c3cnc(C)nc3)cc12 [Compound 377, (1R,3S,5R)-2-(2-(3-acetyl-7-(fluoromethyl)-5-(2-methylpyrimidin-5-yl)-1H-indazol-1-yl)acetyl)-N-(6-bromo-3-methylpyridin-2-yl)-5-(2-(dimethylamino)ethyl)-2-azabicyclo[3.1.0]hexane-3-carboxamide] | < 1000 nM
6 | CC(=O)c1nn(CC(=O)N2[C@H](C(=O)Nc3nc(Br)ccc3C)C[C@@]3(CCCCN(C)C)C[C@@H]23)c2c(CF)cc(-c3cnc(C)nc3)cc12 [Compound 378, (1R,3S,5R)-2-(2-(3-acetyl-7-(fluoromethyl)-5-(2-methylpyrimidin-5-yl)-1H-indazol-1-yl)acetyl)-N-(6-bromo-3-methylpyridin-2-yl)-5-(4-(dimethylamino)butyl)-2-azabicyclo[3.1.0]hexane-3-carboxamide] | < 1000 nM
7 | CC(=O)c1nn(CC(=O)N2[C@H](C(=O)Nc3nc(C(F)(F)F)ccc3C)C[C@@]3(CCCN(C)C)C[C@@H]23)c2c(CF)cc(-c3cnc(C)nc3)cc12 [Compound 380, (1R,3S,5R)-2-(2-(3-acetyl-7-(fluoromethyl)-5-(2-methylpyrimidin-5-yl)-1H-indazol-1-yl)acetyl)-5-(3-(dimethylamino)propyl)-N-(3-methyl-6-(trifluoromethyl)pyridin-2-yl)-2-azabicyclo[3.1.0]hexane-3-carboxamide] | < 1000 nM
8 | CC(=O)c1nn(CC(=O)N2[C@H](C(=O)Nc3nc(Br)ccc3C)C[C@@]3(COC(F)F)C[C@@H]23)c2cnc(-c3cnc(C)nc3)cc12 [Compound 384, (1R,3S,5S)-2-(2-(3-Acetyl-5-(2-methylpyrimidin-5-yl)-1H-pyrazolo[3,4-c]pyridin-1-yl)acetyl)-N-(6-bromo-3-methylpyridin-2-yl)-5-((difluoromethoxy)methyl)-2-azabicyclo[3.1.0]hexane-3-carboxamide] | < 1000 nM
9 | CC(=O)c1nn(CC(=O)N2[C@H](C(=O)Nc3nc(Br)ccc3Cl)C[C@@]3(C)C[C@@H]23)c2ccc(-c3cnc(C)nc3)cc12 [Compound 386, (1R,3S,5R)-2-(2-(3-acetyl-5-(2-methylpyrimidin-5-yl)-1H-indazol-1-yl)acetyl)-N-(6-bromo-3-chloropyridin-2-yl)-5-methyl-2-azabicyclo[3.1.0]hexane-3-carboxamide] | < 1000 nM
10 | CC(=O)c1nn(CC(=O)N2C[C@H]3C[C@H]3[C@H]2C(=O)Nc2nc(Br)ccc2C)c2c(C(C)C)nc(-c3cnc(C)nc3)cc12 [Compound 388, (1R,25,5S)-3-(2-(3-acetyl-7-isopropyl-5-(2-methylpyrimidin-5-yl)-1H-pyrazolo[3,4-c]pyridin-1-yl)acetyl)-N-(6-bromo-3-methylpyridin-2-yl)-3-azabicyclo[3.1.0]hexane-2-carboxamide] | < 1000 nM
11 | Cc1ncc(-c2ccc3c(c2)c(C(=O)c2ncc[nH]2)nn3CC(=O)N2[C@H](C(=O)Nc3nc(Br)ccc3C)C[C@@]3(C)C[C@@H]23)cn1 [Compound 389, (1R,3S,5R)-2-(2-(3-(1H-Imidazole-2-carbonyl)-5-(2-methylpyrimidin-5-yl)-1H-indazol-1-yl)acetyl)-N-(6-bromo-3-methylpyridin-2-yl)-5-methyl-2-azabicyclo[3.1.0]hexane-3-carboxamide] | > 10000 nM
12 | CC(=O)c1nn(CC(=O)N2C[C@H]3C[C@H]3[C@H]2C(=O)Nc2nc(Br)c(F)cc2C)c2c(C)nc(-c3cnc(C)nc3)cc12 [Compound 393, (1R,2S,5S)-3-(2-(3-acetyl-7-methyl-5-(2-methylpyrimidin-5-yl)-1H-pyrazolo[3,4-c]pyridin-1-yl)acetyl)-N-(6-bromo-5-fluoro-3-methylpyridin-2-yl)-3-azabicyclo[3.1.0]hexane-2-carboxamide] | < 1000 nM
13 | COc1cc2c(cc1-c1cnc(C)nc1)c(C(C)=O)nn2CC(=O)N1[C@H](C(=O)Nc2nc(Br)ccc2C)C[C@@]2(C)C[C@@H]12 [Compound 394, (1R,3S,5R)-2-(2-(3-acetyl-6-methoxy-5-(2-methylpyrimidin-5-yl)-1H-indazol-1-yl)acetyl)-N-(6-bromo-3-methylpyridin-2-yl)-5-methyl-2-azabicyclo[3.1.0]hexane-3-carboxamide] | < 1000 nM
14 | COC(=O)c1cc2c(cc1-c1cnc(C)nc1)c(C(C)=O)nn2CC(=O)N1[C@H](C(=O)Nc2nc(Br)ccc2C)C[C@@]2(C)C[C@@H]12 [Compound 395, methyl 3-acetyl-1-(2-((1R,3S,5R)-3-((6-bromo-3-methylpyridin-2-yl)carbamoyl)-5-methyl-2-azabicyclo[3.1.0]hexan-2-yl)-2-oxoethyl)-5-(2-methylpyrimidin-5-yl)-1H-indazole-6-carboxylate] | < 1000 nM
15 | CC(=O)c1nn(CC(=O)N(C(=O)[C@@H]2C[C@@]3(C)C[C@H]3N2)c2nc(Br)ccc2CN(CCC(F)(F)F)CCC(F)(F)F)c2cnc(-c3cnc(C)nc3)cc12 [Compound 396, (1R,3S,5R)-2-(2-(3-acetyl-5-(2-methylpyrimidin-5-yl)-1H-pyrazolo[3,4-c]pyridin-1-yl)acetyl)-N-(3-((bis(3,3,3-trifluoropropyl)amino)methyl)-6-bromopyridin-2-yl)-5-methyl-2-azabicyclo[3.1.0]hexane-3-carboxamide] | < 1000 nM
16 | CC(=O)c1nn(CC(=O)N2[C@H](C(=O)Nc3nc(Br)ccc3Cc3nn[nH]n3)C[C@@]3(C)C[C@@H]23)c2cnc(-c3cnc(C)nc3)cc12 [Compound 397, (1R, 3S, 5R)—N-(3-((2H-Tetrazol-5-yl)methyl)-6-bromopyridin-2-yl)-2-(2-(3-acetyl-5-(2-methylpyrimidin-5-yl)-1H-pyrazolo[3,4-c]pyridin-1-yl)acetyl)-5-methyl-2-azabicyclo[3.1.0]hexane-3-carboxamide] | < 1000 nM
17 | CC(=O)c1nn(CC(=O)N2[C@H](C(=O)Nc3nc(Br)ccc3CN(C)C)C[C@@]3(C)C[C@@H]23)c2cc(Cl)c(-c3cnc(C)nc3)cc12 [Compound 399, (1R,3S,5R)-2-(2-(3-acetyl-6-chloro-5-(2-methylpyrimidin-5-yl)-1H-indazol-1-yl)acetyl)-N-(6-bromo-3-((dimethylamino)methyl)pyridin-2-yl)-5-methyl-2-azabicyclo[3.1.0]hexane-3-carboxamide] | < 1000 nM

Same assay, conditions: Table 8; Factor D 80 nM, substrate Z-L-Lys-SBz; read-out: IC50

Row | Compound | IC50
18 | COC(=O)CCCCCCCCCCCCCCCCC(=O)N[C@@H](CCC(=O)NCCOCCOCC(=O)NCCOCCOCC(=O)NC[C@@]12C[C@@H](C(=O)Nc3nc(Br)ccc3C)N(C(=O)Cn3nc(C(C)=O)c4cc(-c5cnc(C)nc5)cc(C)c43)[C@@H]1C2)C(=O)OC [Compound 391, Methyl (S)-1-((1R,3S,5R)-2-(2-(3-acetyl-7-methyl-5-(2-methylpyrimidin-5-yl)-1H-indazol-1-yl)acetyl)-3-((6-bromo-3-methylpyridin-2-yl)carbamoyl)-2-azabicyclo[3.1.0]hexan-5-yl)-24-(methoxycarbonyl)-3,12,21,26-tetraoxo-5,8,14,17-tetraoxa-2,11,20,25-tetraazatritetracontan-43-oate] | < 1000 nM
19 | CC(=O)c1nn(CC(=O)N2[C@H](C(=O)Nc3nc(Br)ccc3C)C[C@@]3(CNC(=O)COCCOCCNC(=O)COCCOCCNC(=O)CC[C@H](NC(=O)CCCCCCCCCCCCCCCCC(=O)O)C(=O)O)C[C@@H]23)c2c(C)cc(-c3cnc(C)nc3)cc12 [Compound 392, (S)-1-((1R,3S,5R)-2-(2-(3-Acetyl-7-methyl-5-(2-methylpyrimidin-5-yl)-1H-indazol-1-yl)acetyl)-3-((6-bromo-3-methylpyridin-2-yl)carbamoyl)-2-azabicyclo[3.1.0]hexan-5-yl)-24-carboxy-3,12,21,26-tetraoxo-5,8,14,17-tetraoxa-2,11,20,25-tetraazatritetracontan-43-oic acid] | < 1000 nM
